Data as given in patent US4966914A, “Oculoselective beta-blockers as antiglaucoma agents” (E. I. Du Pont de Nemours and Company, priority 1988, dated 1990).
Like-named read-outs stand apart in the source and are kept apart here.

Tests used:
ATRIA = biological target: T1, ATRIA (Cavia porcellus, UniProt H0W3H1); experiment: In vitro potency (pA2), beta-blocking, atria; type: cell-based
T1 construct: ATRIA; from tissue
Method: (§1) The in vitro potency (pA2), in vivo potency and duration of action (DOA) of the compounds of the present invention are recorded in Tables 2 to 4. These pharmacological activities were determined using the methods described in U.S. patent 4,582,855 issued Apr.

beta-blocking effects = experiment: In vivo beta-blocking potency and duration of action (DOA)
Method: as §1

[1] = Table 3, atria, read-out: pA2 ATRIA (converted)

T1 sequence (H0W3H1 1-470): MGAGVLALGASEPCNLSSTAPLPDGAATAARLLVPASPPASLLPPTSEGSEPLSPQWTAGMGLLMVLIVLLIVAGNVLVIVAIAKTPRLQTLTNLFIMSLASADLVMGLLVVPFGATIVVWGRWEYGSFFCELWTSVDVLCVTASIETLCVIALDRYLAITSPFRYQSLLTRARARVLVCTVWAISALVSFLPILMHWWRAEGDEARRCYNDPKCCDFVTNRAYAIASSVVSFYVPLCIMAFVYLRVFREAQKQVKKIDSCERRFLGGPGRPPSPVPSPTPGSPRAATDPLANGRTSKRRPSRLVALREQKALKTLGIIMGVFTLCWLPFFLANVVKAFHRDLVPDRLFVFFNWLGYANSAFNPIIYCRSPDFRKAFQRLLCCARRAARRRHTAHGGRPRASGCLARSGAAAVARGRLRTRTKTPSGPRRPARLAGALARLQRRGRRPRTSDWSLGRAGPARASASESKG

| Kb (ATRIA; [1]) | SMILES | other results |
| --- | --- | --- |
| 20 nM | Cc1cc(O)c(O)cc1C(=O)OCC(O)CNC(C)(C)CNC(=O)C1CC1 (stereo not shown) |  |
| 100 nM | Cc1cc(O)c(O)cc1C(=O)OCC(O)CNC(C)(C)CNC(=O)c1ccccc1F (stereo not shown) |  |
| 6.31 nM | CCCC(=O)NCC(C)(C)NCC(O)COC(=O)c1cc(O)c(O)cc1C (stereo not shown) |  |
| 1.26 nM | CC(C)(CNC(=O)C1CCOC1)NCC(O)COC(=O)c1ccc(O)c(O)c1 (stereo not shown) |  |
| 5.01 nM | Cc1cc(O)c(O)cc1C(=O)OCC(O)CNC(C)(C)CNC(=O)C1CCC1 (stereo not shown) |  |
| 25.1 nM | Cc1cc(O)c(O)cc1C(=O)OCC(O)CNC(C)(C)CNC(=O)c1ccoc1 (stereo not shown) |  |

The next lines start with the molecule.

| SMILES | Kb (ATRIA; [1]) | other results |
| --- | --- | --- |
| CC(=O)NCC(C)(C)NCC(O)COC(=O)c1cc(O)c(O)cc1C (stereo not shown) [Me CH3] | 25.1 nM |  |
| COc1cc(O)c(O)cc1C(=O)OCC(O)CNC(C)(C)CNC(=O)C(C)C (stereo not shown) [drawing 30] | 12.6 nM |  |
| COc1ccc(C(=O)NCC(C)(C)NCC(O)COC(=O)c2cc(O)c(O)cc2C)cc1 (stereo not shown) | 31.6 nM |  |
| CC(C)(CNC(=O)C1CCCCC1)NCC(O)COC(=O)c1ccc(O)c(O)c1 (stereo not shown) | 6.31 nM |  |
| CCC(=O)NCC(C)(C)NCC(O)COC(=O)c1cc(O)c(O)cc1C (stereo not shown) | 10 nM |  |
| COc1cc(O)c(O)cc1C(=O)OCC(O)CNC(C)(C)CNC(=O)C1CCCCC1 (stereo not shown) | 25.1 nM |  |
| Cc1cc(O)c(O)cc1C(=O)OCC(O)CNC(C)(C)CNC(=O)C1CCCCC1 (stereo not shown) |  | Kb (ATRIA; Tables 2 and 4, read-out: In-vitro potency pA2 (converted)): 3.98 nM; DOA (duration of action), second value after the slash (beta-blocking effects; Table 2, cell prints 31/>60): > 60 min; DOA (duration of action) (beta-blocking effects; Tables 2 and 4): 31 min |
| CCOc1cc(O)c(O)cc1C(=O)OCC(O)CNC(C)(C)CNC(=O)C(C)C (stereo not shown) [drawing 32] | 20 nM |  |
